From patent publication US20030198617A1, “Pharmaceutical tryptophan containing dipeptide compositions and methods of use thereof” (priority 1993, published 2003)
Read-outs that look alike come from different tables or passages of the source. Marks after values point to notes of the source that are not given here.

Tests used:
[1] = Prolonged IM862 therapy trials in irradiated patients, blood parameters; assay type: in vivo, human
Text: The group of patients described in Example 42 were further treated for a period of […] and tested again subsequent to the first stage of therapy (after 4 months) and after the second stage of therapy (6 months).

[2] = Blood parameters of Chernobyl victims after 3 years of treatment; assay type: in vivo, human; details: after therapy, IM862
Text: Blood parameters after 3 years of such treatment were restored to the statistical norm prior to their exposure to the radiation.

[3] = test system: ARD and influenza; assay type: in vivo, human
[4] = Young sportsmen, upper respiratory infections; assay type: in vivo, human; details: IM862 intranasally 1 μg/kg, 3 days, 84 sportsmen
Text: The control group consisted of 44 persons.

[5] = Infected patients (Example 96); assay type: in vivo, human; details: IM862 100 μg 5-10 days, 36 patients
Text: A total of 36 patients infected and 24 patients infected were controls.

[6] = test system: Staphylococci; experiment: Antibiotic-sensitivity of staphylococci from skin lesions (MIC, series cultivation); assay type: cell-based; details: after IM862 use (initially 10 of the 15)
Text: Staphylococci extracted from dermal lesions were initially sensitive to 10 of the 15 antibiotics being assayed (Table 25).

[7] = Psoriasis study (Example 108); assay type: in vivo, human; details: during treatment
Description: A comparative study of immunological, coagulation, and acute phase protein parameters was conducted on 30 patients with disseminated forms of psoriasis on normal treatment. Twenty-seven patients had widespread lesions of the smooth skin and scalp; two had psoriatic erythroderma. The period of illness in the majority of those examined exceeded 5 years. In two persons the nail plates were involved in the form of a “thimble” symptom.
Patients were treated under identical conditions and received therapy of vitamins B12, B6, and A, folic acid, pyrogens, sedatives, and desensitizing preparations. Salidol ointment and 3-5% sulfur-salicylic ointments were used locally.
Basic immunological and coagulation assays were conducted on all patients. The findings obtained were compared with the results of investigations done on healthy people between the ages of 18-40 years. […] At the same time, a drop is noted in the quantity of T-lymphocytes, a decrease in the level of T-helpers and suppressors, and a growth in the concentrations of IgA, M, and to a lesser degree, IgG.

[8] = after the 1st stage of IM862 use
[9] = after the 2nd state of IM862 use

Glu-Trp [IM862]
CD2-DR+, % [1, 8]: 22.3 ± 0.5%
CD2-DR+, abs [1, 8]: 0.34 ± 0.05* 10^9/l
CD3, % [1, 8]: 35 ± 4 %
CD3, abs [1, 8]: 0.49 ± 0.06* 10^9/l
CD4, % [1, 8]: 19.5 ± 1.7 %
CD4, abs [1, 8]: 0.28 ± 0.03* 10^9/l
CD8, % [1, 8]: 15.4 ± 2.3%
CD8, abs [1, 8]: 0.23 ± 0.03 10^9/l
CD19, % [1, 8]: 15.0 ± 2.8%
CD19, abs [1, 8]: 0.21 ± 0.06 10^9/l
Leukocytes, abs [1, 8]: 4.7 ± 0.2* 10^9/l
Lymphocytes, abs [1, 8]: 1.5 ± 0.4 10^9/l
CD2-DR+, % [1, 9]: 29 ± 3 %
CD2-DR+, abs [1, 9]: 0.56 ± 0.08* 10^9/l
CD3, % [1, 9]: 46 ± 3 %
CD3, abs [1, 9]: 0.89 ± 0.11* 10^9/l
CD4, % [1, 9]: 24.1 ± 1.5 %
CD4, abs [1, 9]: 0.45 ± 0.04* 10^9/l
CD8, % [1, 9]: 22.3 ± 2.2 %
CD8, abs [1, 9]: 0.40 ± 0.05* 10^9/l
CD19, % [1, 9]: 21.1 ± 2.1 %
CD19, abs [1, 9]: 0.39 ± 0.06* 10^9/l
Leukocytes, abs [1, 9]: 5.5 ± 0.3* 10^9/l
Lymphocytes, abs [1, 9]: 1.9 ± 0.5* 10^9/l
B-Ig+, % [2]: 11.0 ± 0.3%
B-Ig+, abs [2]: 0.23 ± 0.04 10^9/l
B-IgA+, % [2]: 1.9 ± 0.3%
B-IgA+, abs [2]: 0.04 ± 0.002 10^9/l
B-IgG+, % [2]: 4.8 ± 0.5%
B-IgG+, abs [2]: 0.09 ± 0.007 10^9/l
B-IgM+, % [2]: 4.1 ± 0.6 %
B-IgM+, abs [2]: 0.12 ± 0.003 10^9/l
CD2-DR+, & [2]: 32 ± 3 &
CD2-DR+, abs [2]: 0.66 ± 0.10** 10^9/l
CD3, % [2]: 59.2 ± 2.1 %
CD3, abs [2]: 1.21 ± 0.15 10^9/l
CD4, % [2]: 36.2 ± 1.7%
CD4, abs [2]: 0.74 ± 0.08 10^9/l
CD8, % [2]: 23.2 ± 2.1 %
CD8, abs [2]: 0.48 ± 0.07** 10^9/l
IMI, % [2]: 75 ± 6 %
IgA [2]: 1.2 ± 0.4 g/L
IgG [2]: 10.9 ± 1.3 g/L
IgM [2]: 1.06 ± 0.06 g/L
Leukocytes, abs [2]: 5.6 ± 0.4 10^9/l
Lymphocytes, abs [2]: 2.1 ± 0.3 10^9/l
T4/T8 [2]: 1.58 ± 0.04
Average term of hospitalization ([3]; 1st month): 6.2 days
Need in hospitalization, % ([3]; 1st month): 27.0%
Number of temporary disablement cases/100 persons/month ([3]; 1st month): 3.8 cases/100 persons/month
Number of temporary disablement days/100 persons/month ([3]; 1st month): 24.0 days/100 persons/month
Sickness rate/100 persons/month ([3]; 1st month): 9.6 /100 persons/month
Average term of hospitalization ([3]; 2nd month): 6.2 days
Need in hospitalization, % ([3]; 2nd month): 27.1%
Number of temporary disablement cases/100 persons/month ([3]; 2nd month): 7.3 cases/100 persons/month
Number of temporary disablement days/100 persons/month ([3]; 2nd month): 48.6 days/100 persons/month
Sickness rate/100 persons/month ([3]; 2nd month): 11.3 /100 persons/month
Average term of hospitalization ([3]; 3rd month): 6.2 days
Need in hospitalization, % ([3]; 3rd month): 28.3%
Number of temporary disablement cases/100 persons/month ([3]; 3rd month): 3.4 cases/100 persons/month
Number of temporary disablement days/100 persons/month ([3]; 3rd month): 14.3 days/100 persons/month
Sickness rate/100 persons/month ([3]; 3rd month): 9.4 /100 persons/month
Average term of hospitalization ([3]; 4th month): 7.0 days
Need in hospitalization, % ([3]; 4th month): 28.3%
Number of temporary disablement cases/100 persons/month ([3]; 4th month): 3.6 cases/100 persons/month
Number of temporary disablement days/100 persons/month ([3]; 4th month): 26.3 days/100 persons/month
Sickness rate/100 persons/month ([3]; 4th month): 11.0 /100 persons/month
Average term of hospitalization ([3]; IM862 group): 6.2 days
Need in hospitalization ([3]; IM862 group): 30.6
Number of temporary disablement cases/100 persons/month ([3]; IM862 group): 4.1 cases/100 persons/month
Number of temporary disablement days/100 persons/month ([3]; IM862 group): 26.5 days/100 persons/month
Pneumonia rate/100 persons/month ([3]; IM862 group): 0.20 /100 persons/month
Rate of lingering and complicated cases, % ([3]; IM862 group): 3.9%
Sickness rate per 100 persons/month ([3]; IM862 group): 9.8 per 100 persons/month
The same index in-patients, % ([3]; IM862 group, lingering and complicated cases): 9.8%
Index of efficiency: Average term of hospitalization ([3]; IM862 vs control): 1.4
Index of efficiency: Need in hospitalization ([3]; IM862 vs control): 1.7
Index of efficiency: Pneumonia rate ([3]; IM862 vs control): 2.5
Index of efficiency: Rate of lingering and complicated cases ([3]; IM862 vs control): 3.5
Index of efficiency: Sickness rate ([3]; IM862 vs control): 3.1
Index of efficiency: The same index in-patients ([3]; IM862 vs control): 2.7
Index of efficiency: temporary disablement cases ([3]; IM862 vs control): 1.7
Index of efficiency: temporary disablement days ([3]; IM862 vs control): 2.2
reduction of upper respiratory infections and rates of illness [4]: 4 fold
clinical effect [5]: reduction of fever
number of the 15 tested antibiotics to which organisms from the infected foci were sensitive [6]: 14
clinical status and immunological parameters [7]: improvement in clinical status and normalization of immunological parameters
